In ChEMBL document CHEMBL1629568 (Antimicrob Agents Chemother, 2009):
≈ marks a conversion by molar mass, not a printed value.

Tests used:
[1] = Cmax in Nocardia brasiliensis HUJEG-1 infected BALB/c mouse at 25 mg/kg, sc every 8 hrs by HPLC; assay type: ADME, organism-based; parameters: dose 25 mg/kg, route subcutaneous; details: in vivo
Nocardia brasiliensis = test: Antimicrobial activity against Nocardia brasiliensis HUJEG-1 by broth microdilution method; assay type: functional
[2] = Drug level in human plasma at 400 mg/day after 8 hrs; assay type: ADME, cell-free; details: read-out: Drug uptake

Row | SMILES | Cmax [1] [ng/mL] | MIC (Nocardia brasiliensis) [µg/mL] | concentration at 8 h [2] [ng/mL]
1 | O=C(O)c1cn(C2CC2)c2cc(N3CCNCC3)c(F)cc2c1=O [CIPROFLOXACIN] | 2250 |  | 
2 | COc1c(N2C[C@@H]3CCCN[C@@H]3C2)c(F)cc2c(=O)c(C(=O)O)cn(C3CC3)c12 [MOXIFLOXACIN] | 4300 | 0.25 (≈ 0.623 µM) | > 1000
